Data on 37 molecules can be found in patent publication US6953789B2, “Thiol compounds, their production and use” (Takeda Chemical Industries, Ltd., priority 1998, dated 2005).

Each structure is given as a SMILES string. pIC50: −log10 of the molar value. Some results are limits rather than exact numbers.

In general, pIC50 refers to the IC50 on a negative log10 scale, so that one unit is a factor of ten.

One assay concerns the target T1, recombinant human MMP-13 (Homo sapiens, UniProt P45452).
T1 construct: made in house; host or cells: baculovirus (pBlueBac4 / Bac-N-Blue; virus made in Sf9), expressed in High-Five insect cells; culture supernatant used
Briefly: Assay of MMP-13 inhibiting activity (fluorogenic peptide substrate). The note with it: Table 3; 37° C., 2 hours. The assay is classed as biochemical. From the text:
Based on the sequence described in the literature by Freije, J. M. et al (Journal of Biological Chemistry, 269: 16766-16773, 1994) and using a PCR method known per se, a human MMP-13 cDNA was obtained.
A pBlueBac4 (Invitrogen) and a Baculovirus vector Bac-N-Blue (Invitrogen) to each of which the human MMP-13 cDNA obtained above was integrated were co-transfected to an Sf9 cell to obtain a MMP-13-expressing recombinant virus.
The recombinant virus thus obtained was infected to a High-Five cell (Invitrogen), and the culture supernatant after three days was employed as an enzyme solution. Experiment 2 Assay of MMP-13 inhibiting activity
75 μl of a sample containing the recombinant human MMP-13, 200 mM sodium chloride, 20 mM calcium chloride, 0.1% Brij 35, 1 mM 2-mercaptoethanol, 200 mM tris-HCl buffer solution (pH7.5) and a test substance at various concentrations was treated with 25 μl of 40 μM MOCAc-Pro-Leu-Gly-Leu-A2pr(DNP)-Ala-Arg-NH2 (PEPTIDE KENKYUSHO) to initiate a reaction and kept at 37° C. for 2 hours, and then 100 μl of 500 mM sodium acetate-HCl buffer solution (pH3.0) was added to terminate the reaction.
The level of liberated MOCAc-Pro-Leu-Gly was determined using a fluorophotometer (MTP-32/F2: CORONA DENKI) at the excitation wavelength of 330 nm and the fluorescent wavelength of 405 nm. The fluorescent level of the reaction in the absence of a test substance was regarded as 100%, and the concentration of each test substance required for achieving 50% inhibition was indicated as IC50.
`CC(=O)SC1CC(=O)N(Cc2ccc(Oc3ccccc3)cc2)C1` (stereo not shown) [Example 15, 4-Acetylthio-1-(4-phenoxybenzyl)pyrrolidin-2-one]: the pIC50 is 8.00.
Still for that read-out and setting: then `CCSS[C@@H]1CC(=O)N(Cc2ccc(Oc3ccccc3)cc2)C1` [Example 79, (4R)-4-(Ethyldisulfanyl)-1-(4-phenoxybenzyl)-2-pyrrolidinone], with 7.00.
Same read-out and setting: then `CC(C)(C)SS[C@@H]1CC(=O)N(Cc2ccc(Oc3ccccc3)cc2)C1` [Example 81, (4R)-4-(t-Butyldisulfanyl)-1-(4-phenoxybenzyl)-2-pyrrolidinone], with 6.00; and `CC(=O)NC(=O)S[C@@H]1CC(=O)N(Cc2ccc(Oc3ccccc3)cc2)C1` [Example 55, S-[(3R)-5-oxo-1-(4-phenoxybenzyl)pyrrolidinyl]acetylthiocarbamate], with 8.89.
Turning to `O=C(O)CNC(=O)S[C@@H]1CC(=O)N(Cc2ccc(Oc3ccccc3)cc2)C1` [Example 59, [({[(3R)-5-Oxo-1-(4-phenoxybenzyl)pyrrolidinyl]sulfanyl}carbonyl)amino]acetic acid], the pIC50 was 8.70.
`CN1C(=O)CC(S[C@@H]2CC(=O)N(Cc3ccc(Oc4ccccc4)cc3)C2)C1=O` (stereo partly drawn) [Example 106, 1-Methyl-3-{[(3R)-5-oxo-1-(4-phenoxybenzyl)pyrrolidinyl]sulfanyl}-2,5-pyrrolidinedione]: the negative-log IC50 (pIC50) was 7.70.
The same measure, in the same setting: the same measure for `O=C1CC(SCCS(=O)(=O)c2ccccc2)CN1Cc1ccc(Oc2ccccc2)cc1` (stereo not shown) [Example 97, 1-(4-phenoxybenzyl)-4-{[2-(phenylsulfonyl)ethyl]sulfanyl}-2-pyrrolidinone]: 5.70.
With `O=C1CC(SCc2ccc(Br)cc2)CN1Cc1ccc(Oc2ccccc2)cc1` (stereo not shown) [Example 94, 4-[(4-Bromobenzyl)sulfanyl)-1-(4-phenoxybenzyl)-2-pyrrolidinone], the pIC50 is 6.52.
Same read-out and setting: the same measure for `O=C(O)c1ccc(CS[C@@H]2CC(=O)N(Cc3ccc(Oc4ccccc4)cc3)C2)cc1` [Example 96, 4-({[(3R)-5-oxo-1-(4-phenoxybenzyl)pyrrolidinyl]sulfanyl}methyl)benzoic acid]: 6.15.
Still for that read-out and setting: the same measure for `O=C(O)CCNC(=O)S[C@@H]1CC(=O)N(Cc2ccc(Oc3ccccc3)cc2)C1` [Example 61, N-({[(3R)-5-oxo-1-(4-phenoxybenzyl)pyrrolidinyl]sulfanyl}carbonyl)-p-alanine]: 8.74.
For `O=C(O)c1ccccc1SS[C@@H]1CC(=O)N(Cc2ccc(Oc3ccccc3)cc2)C1` [Example 86], the negative logarithm of the IC50 (pIC50) was 6.30.
For `C/C(=C(\CCO)SS[C@@H]1CC(=O)N(Cc2ccc(Oc3ccccc3)cc2)C1)N(C=O)Cc1cnc(C)nc1N` [Example 88, (4-Amino-2-methyl-5-pyrimidinyl)methyl((Z)-4-hydroxy-1-methyl-2-{[(3R)-5-oxo-1-(4-phenoxybenzyl)pyrrolidinyl]disulfanyl}-1-butenyl)formamide], the negative-log IC50 (pIC50) was 6.17.
Still for that read-out and setting: then `CC(C)(C)C(=O)OCSC1CC(=O)N(Cc2ccc(Oc3ccccc3)cc2)C1` (stereo not shown) [Example 18, 4-Pivaloyloxymethylthio-1-(4-phenoxybenzyl)pyrrolidin-2-one], with 7.52; and `CCOC(=O)S[C@@H]1CC(=O)N(Cc2ccc(Oc3ccccc3)cc2)C1` [Example 107, O-Ethyl S-[(3R)-5-oxo-1-(4-phenoxybenzyl)pyrrolidinyl]carbanothioate], with 7.52; and `CN(C)C(=O)S[C@@H]1CC(=O)N(Cc2ccc(Oc3ccccc3)cc2)C1` [Example 62, S-[(3R)-5-oxo-1-(4-phenoxybenzyl)pyrrolidinyl]dimethylcarbamothioate], with 5.52.

The same assay, now with this note: Table 5; 37° C., 2 hours.
Turning to `CC(=O)S[C@@H]1CC(=O)N(Cc2ccc(Oc3ccccc3)cc2)[C@H]1COC1CCCCO1` (relative stereo) [Example 185, trans-4-Acetylthio-5-(tetrahydro-2H-pyran-2-yl)oxymethyl-1-(4-phenoxybenzyl)pyrrolidin-2-one], the pIC50 is 8.22.
In the case of `CC(=O)S[C@@H]1CC(=O)N(Cc2ccc(Oc3ccccc3)cc2)[C@H]1Cc1ccccc1` (relative stereo) [Example 181, trans-4-Acetylthio-5-benzyl-1-(4-phenoxybenzyl)pyrrolidin-2-one], the negative-log IC50 (pIC50) is 8.10.
Still for that read-out and setting: the same measure for `CCOC(=O)CNC(=O)[C@H]1[C@H](SC(C)=O)CC(=O)N1Cc1ccc(Oc2ccccc2)cc1` (relative stereo) [Example 186, trans-4-Acetylthio-5-ethoxycarbonylmethylaminocarbonyl-1-(4-phenoxybenzyl)pyrrolidin-2-one]: 7.30; for `CC(=O)S[C@@H]1CC(=O)N(Cc2ccc(Oc3ccccc3)cc2)[C@H]1C` [Example 177, (4R,5S)-4-Acetylthio-5-methyl-1-(4-phenoxybenzyl)pyrrolidin-2-one]: 8.70; for `CC(=O)SC1CC(=O)N(Cc2ccc(Oc3ccccc3)cc2)C1C(N)=O` (stereo not drawn) [Example 187, trans-5-Aminocarbonyl-4-acetylthio-1-(4-phenoxybenzyl)pyrrolidin-2-one]: 6.44.
In the case of `CC(=O)S[C@@H]1CC(=O)N(Cc2ccc(Oc3ccccc3)cc2)[C@H]1C(=O)NCc1ccncc1` (relative stereo) [Example 191, trans-4-Acetylthio-5-(4-pyridylmethyl)aminocarbonyl-1-(4-phenoxybenzyl)pyrrolidin-2-one], the negative logarithm of the IC50 (pIC50) was 6.92.
Same read-out and setting: then `CC(=O)SC1CC(=O)N(Cc2ccc(Oc3ccccc3)cc2)C1CO` (stereo not drawn) [Example 20, Trans-4-acetylthio-5-hydroxymethyl-1-(4-phenoxybenzyl)pyrrolidin-2-one], with 8.00; and `CCCNC(=O)OC[C@H]1[C@H](S)CC(=O)N1Cc1ccc(Oc2ccccc2)cc1` (relative stereo) [Example 184, trans-4-Mercapto-5-propylaminocarbonyloxymethyl-1-(4-phenoxybenzyl)pyrrolidin-2-one], with 8.64.

Staying with this assay, now noted: Table 7; 37° C., 2 hours.
In the case of `O=C1CC(SSC2CC(=O)N(Cc3ccc(Oc4ccccc4)cc3)C2=O)C(=O)N1Cc1ccc(Oc2ccccc2)cc1` (stereo not shown) [Example 12], the pIC50 was 8.05.

The assay is the same for the next values; noted with them: Table 9; 37° C., 2 hours.
Regarding `CC(=O)SC1CC(=O)N(Cc2ccc(Oc3ccc(Br)cc3)cc2)C1` (stereo not shown) [Example 34, 4-Acetylthio-1-(4-(4′-bromophenoxy)benzyl)pyrrolidin-2-one], the pIC50 is 8.00.
On the same count and under the same terms, then `CCOc1ccc(Oc2ccc(CN3CC(SC(C)=O)CC3=O)cc2)cc1` (stereo not shown) [Example 138, 4-Acetylthio-1-[4-(4′-ethoxyphenoxy)benzyl]pyrrolidin-2-one], with 7.70; and `CC(=O)Nc1ccc(Oc2ccc(CN3CC(S)CC3=O)cc2)cc1` (stereo not shown) [Example 145, 4-Mercapto-1-[4-(4′-acetoaminophenoxy)benzyl]pyrrolidin-2-one], with 8.89; and `O=C1CC(S)CN1Cc1ccc(Oc2ccc(Cl)cc2)cc1` (stereo not shown) [Example 33, 4-Mercaoto-1-(4-(4′-chlorophenoxy)benzyl)pyrrolidin-2-one], with 8.30.
On to `CC(=O)SC1CC(=O)N(Cc2ccc(Oc3ccccc3)cc2[N+](=O)[O-])C1` (stereo not shown) [Example 150, 4-Acetylthio-1-(2-nitro-4-phenoxybenzyl)pyrrolidin-2-one], for which the pIC50 is 5.26.
Still for that read-out and setting: then `CC(=O)SC1CC(=O)N(Cc2ccc(Oc3ccc(C(F)(F)F)cc3)cc2)C1` (stereo not shown) [Example 129, 4-Acetylthio-1-[4-(4′-(trifluoromethyl)phenoxy)benzyl]pyrrolidin-2-one], with 7.52; and `CCOC(=O)c1ccc(Oc2ccc(CN3CC(SC(C)=O)CC3=O)cc2)cc1` (stereo not shown) [Example 131, 4-Acetylthio-1-[4-(4′ethoxycarbonylphenoxy)benzyl]pyrrolidin-2-one], with 7.70; and `CC(=O)S[C@@H]1CC(=O)N(Cc2ccc(Oc3ccc(C)cc3)cc2)C1` [Example 127, (R)-4-Acetylthio-1-[4-(4′-methylphenoxy)benzyl]pyrrolidin-2-one], with 8.00.
In the case of `CCNC(=O)Nc1ccc(Oc2ccc(CN3CC(S)CC3=O)cc2)cc1` (stereo not shown) [Example 149, 4-Mercapto-1-[4-(4′-ethylaminocarbonylaminophenoxy)benzyl]pyrrolidin-2-one], the pIC50 was 8.46.
The same measure, in the same setting: the same measure for `CC(=O)SC1CC(=O)N(Cc2ccc(Oc3ccc([N+](=O)[O-])cc3)cc2)C1` (stereo not shown) [Example 142, 4-Acetylthio-1-[4-(4′-nitrophenoxy)benzyl]pyrrolidin-2-one]: 7.28.

Staying with this assay, now noted: Table 10; 37° C., 2 hours.
Regarding `CC(=O)SC1CC(=O)N(Cc2ccc(CCc3ccccc3)cc2)C1` (stereo not shown) [Example 167, 4-Acetylthio-1-(4-phenethylbenzyl)pyrrolidin-2-one], the negative-log IC50 (pIC50) is 6.40.
For `O=C1CC(S)CN1Cc1ccc(Cc2ccccc2)cc1` (stereo not shown) [Example 160, 4-Mercapto-1-(4-benzylbenzyl)pyrrolidin-2-one], the negative logarithm of the IC50 (pIC50) is 7.05.

Still in this assay, the particulars now being: Table 11; 37° C., 2 hours.
In the case of `CC(=O)SC1CC(=O)N(CC2CCN(C(=O)c3ccccc3)CC2)C1` (stereo not shown) [Example 193, 4-Acetylthio-1-[(1-benzoyl-4-piperidyl)methyl]pyrrolidin-2-one], the negative-log IC50 (pIC50) was less than 5.00.
